The text below walks through data of patent US20140370048A1, “COMPOSITION FOR TREATMENT OR PREVENTION OF HYPERLIPIDEMIA, CONTAINING ALCOHOL EXTRACTS OF OLIGOPORUS TEPHROLEUCUS” (POSTECH ACADEMY-INDUSTRY FOUNDATION, priority 2011, published 2014).

The experiment has as its system cholesterol absorption in the digestive tract. Briefly: Amount of cholesterol absorption into blood from the digestive tract after oral 3H-cholesterol oleate in mice. Type of experiment: in vivo. To be noted: 8-week old male Balb/c mouse, plasma six hours after administration, extract 20 ml of 10 mg/mL concentrated into 0.1 mL, Orlistat 400 μg (20 mg/kg), FIG. 2. As for the experimental part:
Cholesterol oleate (Amersham, 100 μCi/mL) radiolabeled with ^3H was mixed with 1% (w/v) sodium carboxylmethyl cellulose (CMC-Na), 1% (v/v) Tween 80, and a non-labeled cholesterol oleate, and then 0.1 mL of the mixture was forcibly administered into each mouse through an oral zonde so that 1 μCi could be delivered to each mouse. Here, the mouse in the control group (an 8-week old male Balb/c with body weight of 25 g) was treated with 400 μg of Orlistat (20 mg/kg), which has an inhibitory effect against cholesterol absorption, and the mouse in the experimental group (an 8-week old male Balb/c with body weight of 25 g) was treated with 20 ml of the ethanol extract (10 mg/mL) of Oligoporus tephroleucus prepared in the Example after concentrating it into 0.1 mL. Six hours after the administration, blood samples were collected from the mice, and plasma was obtained by centrifuging the blood at […] at the rate of 14000 rpm, and the radioactive dose was measured by a liquid scintillator (Beta counter, Beckman LS1801). The Control group was not treated with anything that may inhibit the absorption of cholesterol. The amount of cholesterol absorption was determined as a relative value by dividing the radioactive dose of each group into the radioactive dose of the control group, in which the radioactive dose of the control group was set at ‘1’.

As to `CCCCCCCCCCC[C@@H](C[C@@H]1OC(=O)[C@H]1CCCCCC)OC(=O)[C@H](CC(C)C)NC=O` [Orlistat], the “inhibitory effect upon the cholesterol absorption (plasma radioactive dose relative to untreated control set at 1)” value was “significant inhibitory effect”.
